Assay results: patent US12421276B2 (priority 2016, dated 2025)

Legend:
Type in all cases: in vitro ADME
[1] = Plasma stability study, human plasma; conditions: Human plasma, 1 μM, 37° C.
Method in brief: (§1)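 Compounds (1 μM, from 0.3 mM DMSO stock) incubated at 37° C in K2 EDTA plasma, quenched at time points with acetonitrile/methanol/formic acid plus internal standard, and analysed by LC/MS/MS. Disappearance measured relative to 0-min control; t½ derived from elimination rate constant of semi-log % remaining versus time regression.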

[2] = Metabolic stability in simulated gastric fluid (SGF), pH 1.2, with or without pepsin; conditions: 5 μM, 37° C.
Method in brief: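 Compound at 5 μM incubated at 37 °C in SGF (34.2 mM NaCl, pH 1.2) without or with 0.32% pepsin; acetonitrile/formic acid quench at time points, LC/MS/MS. Disappearance relative to 0-min; t½ from elimination rate constant of semi-log % remaining vs time.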

[3] = Plasma stability study, rat plasma; conditions: Rat plasma, 1 μM, 37° C.
Method in brief: as §1

[4] = Metabolic stability in simulated intestinal fluid (SIF), pH 6.8, with or without pancreatin; conditions: 5 μM, 37° C.
Method in brief: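 Compounds at 5 μM incubated at 37 °C in freshly made SIF pH 6.8 (NaOH/NaH2PO4/NaCl), with or without 1% pancreatin. Remaining parent measured by LC/MS/MS against 0-min control; t½ derived from elimination rate constant (−slope) of semi-log % remaining vs time.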

SMILES | Plasma Stability Half-Life [1] [h] | Plasma Stability (% Parent Remaining) 0 min [1] [%] | Plasma Stability (% Parent Remaining) 60 min [1] [%] | Plasma Stability (% Parent Remaining) 120 min [1] [%] | Plasma Stability (% Parent Remaining) 240 min [1] [%] | SGF Stability (pH 1.2) Half-Life (min) ([2]; +Pepsin (0.32%)) | SGF Stability (pH 1.2) 0 min ([2]; +Pepsin (0.32%)) [%] | SGF Stability (pH 1.2) 60 min ([2]; +Pepsin (0.32%)) [%] | SGF Stability (pH 1.2) 120 min ([2]; +Pepsin (0.32%)) [%] | SGF Stability (pH 1.2) 240 min ([2]; +Pepsin (0.32%)) [%] | Plasma Stability Half-Life [3] [h] | Plasma Stability (% Parent Remaining) 0 min [3] [%] | Plasma Stability (% Parent Remaining) 60 min [3] [%] | Plasma Stability (% Parent Remaining) 120 min [3] [%] | Plasma Stability (% Parent Remaining) 240 min [3] [%] | SIF Stability (pH 6.8) Half-Life (min) ([4]; +Pancreatin (1%)) | SIF Stability (pH 6.8) 0 min ([4]; +Pancreatin (1%)) [%] | SIF Stability (pH 6.8) 60 min ([4]; +Pancreatin (1%)) [%] | SIF Stability (pH 6.8) 120 min ([4]; +Pancreatin (1%)) [%] | SIF Stability (pH 6.8) 240 min ([4]; +Pancreatin (1%)) [%] | other results
CCCCCC(=O)NC(Cc1ccc(OC(=O)N2CCN(C)CC2)cc1)C(=O)NC(C(=O)NCCCCCC(N)=O)C(C)CC (centres unmarked) [Compound A20] | 49.295 | 100 | 83 | 87 | 90 | 84.5 | 100 | 57 | 37 | 26 | 2.617 | 100 | 73 | 56 | 34 | 86.6 | 100 | 62 | 54 | 61 | SGF Stability (pH 1.2) Half-Life (min) ([2]; −Pepsin): 116.5 min; SGF Stability (pH 1.2) 0 min ([2]; −Pepsin): 100%; SGF Stability (pH 1.2) 60 min ([2]; −Pepsin): 70%; SGF Stability (pH 1.2) 120 min ([2]; −Pepsin): 57%; SGF Stability (pH 1.2) 240 min ([2]; −Pepsin): 60%; SIF Stability (pH 6.8) Half-Life (min) ([4]; −Pancreatin): 95.4 min; SIF Stability (pH 6.8) 0 min ([4]; −Pancreatin): 100%; SIF Stability (pH 6.8) 60 min ([4]; −Pancreatin): 65%; SIF Stability (pH 6.8) 120 min ([4]; −Pancreatin): 57%; SIF Stability (pH 6.8) 240 min ([4]; −Pancreatin): 51%
CCCCCC(=O)NC(Cc1ccc(OC(=O)NCCN(C)C)cc1)C(=O)NC(C(=O)NCCCCCC(N)=O)C(C)CC (centres unmarked) [Compound A21] | 1.22 | 100 | 59 | 33 | 11 | 265.1 | 100 | 87 | 74 | 54 | 1.16 | 100 | 61 | 34 | 9 | 3006.4 | 100 | 95 | 97 | 93 | –
